Reference: US20170197977A9, “COMPOSITIONS AND METHODS FOR TREATING NEURODEGENERATIVE DISEASE” (COGNITION THERAPEUTICS, INC., priority 2011, published 2017)

Assays:
[1] = system: Abeta oligomer-induced synapse loss; experiment: Synapse loss assay (synaptophysin puncta) in primary neurons; assay type: cell-based, rat
Method: In this assay, Abeta oligomers were brought in contact with mature primary neurons in culture and their binding was determined by immunohistochemistry (anti-Abeta antibody) and quantified by image processing. The amount of Abeta in neuronal dendrites is assessed by counting the number of labeled puncta on the neuritis. […] This labeling is associated with synapses, co-localizing with the post-synaptic scaffold protein PSD-95 (Lacor et al., '04). […] The number of synapses can also be quantified in this assay by immunofluorochemistry. Similar procedures for binding assays can be found in the literature. […] Review.
Primary hippocampal neuronal culture was established as in the membrane trafficking assay above. […] Pretreatment with compounds to be tested lasted for 1 hr and addition of Abeta oligomers or no oligomer (vehicle alone) in a final concentration of 70 ul was followed by incubation for an additional 23 hrs.
The plates were then washed 3× with PBS for 5 min each. The plates were blocked at RT for 1 hr in 5% goat serum and 0.5% Triton X-100 in PBS. […] Primary antibodies were incubated overnight at 4° C. The plates were then washed 3× with PBS for 5 min each. […] Secondary antibodies were incubated at RT for 1 hr. The plates were washed once with PBS. DAPI (4′,6-diamidino-2-phenylindole, Invitrogen) was then applied at 0.03 ug/ul and incubated at RT for 5 min, then washed with PBS.
Images were captured and analyzed with the Cellomics VTI automated microscope platform, using the Neuronal Profiling algorithm. For statistical analysis, a Tukey-Kramer pair-wise comparison with unequal variance was used.

[2] = system: SKOV-3 human ovarian cancer cell line; experiment: MTS tumor cell viability assay; assay type: cell-based; details: agonist/antagonist call relative to siramesine
Method: The cytotoxicity of compounds shown below was determined using the CellTiter96 Aqueous One Solution Assay (Promega, Madison, Wis.). […] The plate was read at 490 nm in a Victor3 plate reader (PerkinElmer Life and Analytical Sciences, Shelton, Conn.). The EC^50 value, defined as the concentration of the sigma ligand required to inhibit cell viability by 50% relative to untreated cells, was determined from the dose response curve for each cell line.

[3] = system: caspase-3 activity in neurons; experiment: Caspase-3 activity assay in neurons; assay type: cell-based
Method: The activation of endogenous caspase-3 by sigma-2 receptor ligands was measured using the Caspase-3 Colorimetric Activity Assay Kit (Milipore, Billerica, Mass.) according to the manufacture's protocol. Briefly, MDA-MB 435 or MDA-MB23I cells were plated at 0.5×10^6 cells 100 mm dish. 24 hours after plating, sigma-2 ligands were added to the culture dishes to induce caspase 3 activation. The final concentration of the sigma-2 ligand was its EC50. 24 hours after treatment, cells were harvested, lysed in 300 uL of Cell Lysis Buffer, and centrifuged for 5 minutes at 10,000×g. Supernatant was collected and incubated with caspase-3 substrate, DEVD-pNA, for 2 hours at 37° C. […] Compounds IXa,IXb and II behaved like sigma-2 […] in both cancer cells and neurons.

sigma-2 receptor = experiment: Autoradiography, displacement of [3H]-RHM-1 in brain sections; assay type: binding; details: 1 μM; monkey frontal cortex, monkey hippocampus, human temporal cortex
Method: Brain sections in 20 μM thickness from rats, rhesus monkeys and postmortem human brains were cut using with a Microm cryotome and mounted on superfrost plus glass slides (Fisher Scientific, Pittsburgh, Pa.)., and serial sections through the brain regions of cerebral cortex and hippocampus were used in this study.
Slides were dried and made conductive by coating with a copper foil tape on the free side and then placed in the gas chamber [mixture of argon and triethylamine (Sigma-Aldrich, USA)] of a gaseous detector, the Beta Imager 2000Z Digital Beta Imaging System (Biospace, France). […] [^3H]Microscale (American Radiolabeled Chemicals, Inc., St. Louis, Mo.) was counted at the same time as a reference for total radioactivity quantitative analysis, i.e., to convert the cpm/mm2 to nCi/mg tissue. Quantitative analysis was performed with the program Beta-Image Plus (BioSpace, France) for the anatomical regions of interest (ROI), i.e., to obtain the quantitative radioactivity uptake (cpm/nlln2) in the regions of cortex and hippocampus. The binding density was normalized to fmol/mg tissue based on the specific activities of the corresponding radioligands and calibration curve from the standard [^3H]Microscale.

CYP2D6, CYP3A4, CYP2C19 = experiment: in vitro
[4] = In vivo PK, plasma and brain levels; details: male, C57BL/6, mouse
Excerpt: A plasma calibration curve was generated. […] Subcutaneous compound administration was accomplished by […]. Per oral administration was accomplished by gastric gavage. Intravenous administration was accomplished via jugular catheter. […] A brain calibration curve was generated.

sigma-1 receptor = molecular target: T1, sigma-1 receptor (Cavia porcellus, UniProt Q60492); experiment: Competitive radioligand binding assay 2, guinea pig brain membrane homogenates; details: read-out: Sigma-1 (Ki, nM) ±mean SEM
T1 construct: from tissue; host or cells: guinea pig brain membrane homogenates
T1 sequence (Q60492 whole entry): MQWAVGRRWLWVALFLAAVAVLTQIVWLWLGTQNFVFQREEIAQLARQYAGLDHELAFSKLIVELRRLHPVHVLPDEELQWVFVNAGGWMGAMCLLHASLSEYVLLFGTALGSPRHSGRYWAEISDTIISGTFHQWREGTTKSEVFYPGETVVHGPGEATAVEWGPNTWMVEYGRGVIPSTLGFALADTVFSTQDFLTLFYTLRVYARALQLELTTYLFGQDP
Method: The affinity of candidate sigma-2 ligand compounds at sigma-1 and sigma-2 receptors was also determined by displacement of different known labeled sigma-2 or sigma-1 ligands. Filtration assays were conducted according the previously published procedure (Xu, et al., 2005). Test compounds were dissolved in N,N-Dimethylformamide (DMF), dimethyl sulfoxide (DMSO) or ethanol and then diluted in 50 mM Tris-HCl pH 7.4 buffer containing 150 mM NaCl and 100 mM EDTA. Membrane homogenates were made from guinea pig brain for sigma-1 binding assay and rat liver for sigma-2 binding assay. Membrane homogenates were diluted with 50 mM Tris-HCl buffer, pH 8.0 and incubated at 25° C. in a total volume of 150 uL in 96 well plates with the radioligand and test compounds with concentrations ranging from 0.1 nM to 10 uM. […] A Wallac 1450 MicroBeta liquid scintillation counter (Perkin Elmer, Boston, Mass.) was used to quantitate the bound radioactivity.
The binding affinity, Ki values was calculated using the method of Cheng and Prusoff. […]

[5] = molecular target: T2, sigma 2 (agonist radioligand) (Rattus norvegicus, UniProt Q5U3Y7); experiment: Receptor binding assay, displacement of known radioligand; details: read-out: % Inhibition of Control
T2 sequence (Q5U3Y7 1-176): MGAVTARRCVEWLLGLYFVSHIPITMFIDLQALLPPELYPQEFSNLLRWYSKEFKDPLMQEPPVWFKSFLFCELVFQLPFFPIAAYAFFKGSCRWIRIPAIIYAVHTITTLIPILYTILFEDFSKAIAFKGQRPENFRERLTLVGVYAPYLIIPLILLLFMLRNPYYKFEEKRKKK

100 known receptors = experiment: Test for action at 100 known receptors; assay type: binding, human; details: 10 μM
Method: It was also tested for its ability to block downstream signaling induced by agonists or antagonists of a given human receptor.

neuronal cultures = experiment: Nuclear intensity / morphology in neuronal cultures; details: 24 hours

COc1cc(CCC(C)NCc2ccc(C(F)(F)F)cc2)ccc1O (stereo not drawn) [Compound II]
Share of Abeta oligomer-induced synapse loss eliminated ([1]; 5 μM of compound): 100%
Block synapse loss ([1]; Table 10B): 100%
Synapse number when dosed without Abeta oligomers ([1]; compound in vehicle alone): No effect
Abeta oligomer-induced synapse loss ([1]; in words): completely eliminated this synaptic regression
Action [2]: Antagonist
Induction of caspase-3 activity [3]: did not induce caspase-3 activity
Block of caspase-3 activation caused by sigma-2 receptor agonist SV-119 ([3]; 24 hours): blocked caspase-3 activation
Displacement of 18.4 nM [3H]-RHM-1 (sigma-2 receptor): partially displace
inhibition at 10 µM (CYP2D6, CYP3A4, CYP2C19): 46 to 73%
Brain concentration as multiple of the efficacious brain dose in vivo ([4]; iv, 10 mg/kg, 180 min): 57 ×
Amount in the brain as multiple of the efficacious dose ([4]; po, 3 h): ~40 ×
Ki (sigma-1 receptor): 108 ± 19.9 nM
inhibition at 10 µM [5]: 89%
Number of receptors with activity >50% (assay window) out of 100 (100 known receptors): 5
Nuclear morphology / nuclear intensity compared to vehicle (neuronal cultures): did not decrease nuclear intensity
